# US10335392B2, “Cyclic compounds useful as modulators of TNF α” (BRISTOL-MYERS SQUIBB COMPANY, priority 2015, dated 2019)
# Molecular target: TNFα (Homo sapiens (Human), UniProt P01375)
# Assay: TNF induced HEK-Blue assay
# Type: cell-based
# Conditions: TNFα 0.5 ng/ml; HEK-Blue-CD40L cells, NF-kB-driven secreted alkaline phosphatase reporter; 18 h
# Method: TNF or CD40L-Induced HEK-Blue Assay
# Test compounds serially diluted in DMSO were plated in an assay plate (LABCYTE, Cat. # LP-0200) at final concentrations ranging from 0.004 μM to 25 μM. TNFα (final concentration 0.5 ng/ml) or CD40L (final concentration 30 ng/ml) in assay buffer [DMEM, 4.5 g/l glucose (Gibco, Cat. 21063-029), 10% FBS (Sigma, F4135), 1% Penicillin-Streptomycin (Gibco, Cat. 15140-122), 1% Anti-Anti (Gibco, Cat. 15240-112) and 2 mM L-glutamine (Gibco, Cat. 25030-081)] was then added to the assay plate. After a 30 minute pre-incubation at 37° C. and 5% CO2, HEK-Blue™-CD40L cells (INVIVOGEN, Cat. Code hkb-cd40) containing a NF-kB-driven secreted alkaline phosphatase reporter gene were seeded into the assay plate at a density of 20,000 cells per well. This plate was then incubated for 18 h at 37° C. and 5% CO2. Secreted alkaline phosphatase expression was measured using QUANTI-Blue™ (INVIVOGEN, Cat. Code rep-qb1) according to manufacturer's specifications and the assay plate was read on a PerkinElmer Envision at 620 nm.
# Inhibition data for the test compound over a range of concentrations was plotted as percentage inhibition of the test compound (100%=maximum inhibition). IC50 values were determined after correcting for background [(sample read−mean of low control)/(mean of high control−mean of low control)] where by the low control is DMSO without stimulation and high control is DMSO with stimulation. The IC50 is defined as the concentration of test compound which produces 50% inhibition and was quantified using the 4 parameter logistic equation to fit the data.
# Sequence of TNFα (P01375 77-233): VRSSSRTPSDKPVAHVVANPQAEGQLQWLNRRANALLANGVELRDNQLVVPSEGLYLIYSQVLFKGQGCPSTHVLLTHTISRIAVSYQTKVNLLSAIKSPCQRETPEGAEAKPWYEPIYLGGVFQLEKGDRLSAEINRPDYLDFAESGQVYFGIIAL
row,Compound,IC50
1,"O=C(O)CN1CCN(c2ncc(-c3cc4c(cc3F)nc3n4[C@@H](c4ccccc4OC(F)F)[C@@H]4C[C@H]34)cn2)CC1 [Example 33, 2-(4-(5-((1aS,8R,8aR)-8-(2-(difluoromethoxy)phenyl)-4-fluoro-1,1a,8,8a-tetrahydrobenzo[d]cyclopropa[3,4]pyrrolo[1,2-a]imidazol-5-yl)pyrimidin-2-yl)piperazin-1-yl)acetic acid]",< 1 µM
2,"CC(C)(O)c1ncc(-c2cc3c(cc2F)nc2n3[C@@H](c3ccccc3OCc3ccncc3)[C@@H]3C[C@H]23)cn1 [Example 34, 2-(5-((1aS,8R,8aR)-4-fluoro-8-(2-(pyridin-4-ylmethoxy)phenyl)-1,1a,8,8a-tetrahydrobenzo[d]cyclopropa[3,4]pyrrolo[1,2-a]imidazol-5-yl)pyrimidin-2-yl)propan-2-ol]",1 to 10 µM
3,"CC(C)(O)c1ncc(-c2cc3c(cc2F)nc2n3[C@H](c3ccccc3OCc3ccncc3)[C@@H]3C[C@H]23)cn1 [Example 35, 2-(5-((1aS,8S,8aR)-4-fluoro-8-(2-(pyridin-4-ylmethoxy)phenyl)-1,1a,8,8a-tetrahydrobenzo[d]cyclopropa[3,4]pyrrolo[1,2-a]imidazol-5-yl)pyrimidin-2-yl)propan-2-ol]",10 to 25 µM
